Measurements taken from the NIST ThermoML archive (doi:10.1021/je500422t).
± gives the expanded uncertainty stated by the source.

Legend:
[1] = Liquid; for mass density: 298.2 K, 101.33 kPa, Vibrating tube method; for Normal boiling temperature: Distillation
[2] = refractive index (Na D-line) (dimensionless); settings: 298.2 K; 101.33 kPa; Liquid; Standard Abbe refractometry

SMILES | mass density [1] | Normal boiling temperature [1] | refractive index [2]
O=CO [formic acid] | 1220.04 ± 1.1 kg/m3 | 101.2 ± 1.1 °C | 1.37144 ± 0.00039
COC(=O)OC [dimethyl carbonate] | 1061.9 ± 1 kg/m3 | 90.08 ± 1.1 °C | 1.3685 ± 0.0004
